Source: ChEMBL document CHEMBL1133949, “Development of C-20 modified betulinic acid derivatives as antitumor agents” (Bioorg Med Chem Lett, 2001)

Columns and labels:
SK-MEL-2 [1] = assay: Cytotoxicity of compound against SK-MEL-2 using SRB assay; format: functional, cell-based, Homo sapiens
PC-3 = assay: Cytotoxicity of compound against human prostate adenocarcinoma (PC3) using SRB assay; format: functional, cell-based, Prostate gland
M14 = assay: Cytotoxicity of compound against human melanoma cell lines (M14-MEL) using MTT assay; format: functional
SK-MEL-2 [2] = assay: Cytotoxicity of compound against human melanoma cell lines (SK-MEL-2) using MTT assay; format: functional
HCT-116 = assay: Cytotoxicity of compound against human colon carcinoma (HCT116) using MTT assay; format: functional
UACC-257 = assay: Cytotoxicity of compound against human melanoma cell lines (UACC-257) using MTT assay; format: functional

SMILES	EC50 (SK-MEL-2 [1]) [µM]	EC50 (PC-3) [µM]	GI50 (M14) [µM]	GI50 (SK-MEL-2 [2]) [µM]	GI50 (HCT-116) [µM]	GI50 (UACC-257) [µM]
CO/N=C1\CC[C@]2(C)[C@H]3CC[C@@H]4[C@H]5[C@H](C(C)C)CC[C@]5(C(=O)O)CC[C@@]4(C)[C@]3(C)CC[C@H]2C1(C)C	> 21.2	> 16.4	–	–	–	–
CC(C)[C@@H]1CC[C@]2(C(=O)O)CC[C@]3(C)[C@H](CC[C@@H]4[C@@]5(C)CC/C(=N\O)C(C)(C)[C@@H]5CC[C@]43C)[C@@H]12	> 3.4	> 3	–	–	–	–
C=C(CNOC)[C@@H]1CC[C@]2(C(=O)O)CC[C@]3(C)[C@H](CC[C@@H]4[C@@]5(C)CC[C@H](O)C(C)(C)[C@@H]5CC[C@]43C)[C@@H]12	> 50	> 50	–	–	–	–
C=C(CNO)[C@@H]1CC[C@]2(C(=O)O)CC[C@]3(C)[C@H](CC[C@@H]4[C@@]5(C)CC[C@H](O)C(C)(C)[C@@H]5CC[C@]43C)[C@@H]12	> 50	> 50	–	–	–	–
CO/N=C(/C)[C@@H]1CC[C@]2(C(=O)O)CC[C@]3(C)[C@H](CC[C@@H]4[C@@]5(C)CC[C@H](O)C(C)(C)[C@@H]5CC[C@]43C)[C@@H]12	> 50	> 50	> 50	> 50	> 50	> 50
C=C(C)[C@@H]1CC[C@]2(C(=O)O)CC[C@]3(C)[C@H](CC[C@@H]4[C@@]5(C)CC[C@H](OC(C)=O)C(C)(C)[C@@H]5CC[C@]43C)[C@@H]12	> 6.9	> 7.2	> 6.4	> 3.9	> 11.3	> 4.5
C=C(COC)[C@@H]1CC[C@]2(C(=O)O)CC[C@]3(C)[C@H](CC[C@@H]4[C@@]5(C)CC[C@H](O)C(C)(C)[C@@H]5CC[C@]43C)[C@@H]12	> 10.1	> 9.4	> 9	> 50	> 8.6	> 12.7
C=C(CO)[C@@H]1CC[C@]2(C(=O)O)CC[C@]3(C)[C@H](CC[C@@H]4[C@@]5(C)CC[C@H](O)C(C)(C)[C@@H]5CC[C@]43C)[C@@H]12	> 9	> 8.4	> 16.2	> 9.3	> 9.8	> 50
CC(O)[C@@H]1CC[C@]2(C(=O)O)CC[C@]3(C)[C@H](CC[C@@H]4[C@@]5(C)CC[C@H](O)C(C)(C)[C@@H]5CC[C@]43C)[C@@H]12 (stereo not given in full)	> 50	> 50	> 50	> 50	> 50	> 50
C/C(=N/O)[C@@H]1CC[C@]2(C(=O)O)CC[C@]3(C)[C@H](CC[C@@H]4[C@@]5(C)CC[C@H](O)C(C)(C)[C@@H]5CC[C@]43C)[C@@H]12	> 50	> 50	> 50	> 50	> 50	> 50
C=C(C)[C@@H]1CC[C@]2(C(=O)O)CC[C@]3(C)[C@H](CC[C@@H]4[C@@]5(C)CC[C@H](O)C(C)(C)[C@@H]5CC[C@]43C)[C@@H]12 [BETULINIC ACID]	2.2	1.9	2.7	3.2	2.7	1.5
CC(C)[C@@H]1CC[C@]2(C(=O)O)CC[C@]3(C)C(CCC4[C@@]5(C)CC[C@H](O)C(C)(C)C5CC[C@]43C)C12 (stereo not given in full) [DIHYDROBETULINIC ACID]	> 2	> 2.2	–	–	–	–
CC(C)[C@@H]1CC[C@]2(C(=O)O)CC[C@]3(C)[C@H](CC[C@@H]4[C@@]5(C)CCC(=O)C(C)(C)[C@@H]5CC[C@]43C)[C@@H]12 [DIHYDROBETULONIC ACID]	> 1.6	> 1.3	–	–	–	–
CC(=O)[C@@H]1CC[C@]2(C(=O)O)CC[C@]3(C)[C@H](CC[C@@H]4[C@@]5(C)CC[C@H](O)C(C)(C)[C@@H]5CC[C@]43C)[C@@H]12 [PLATANIC ACID]	> 50	> 50	> 50	> 50	> 50	> 50
